From ChEMBL document CHEMBL6121060, “Discovery and Development of CFTR Modulators for the Treatment of Cystic Fibrosis” (J Med Chem, 2025)

Legend:
[1] = target: T1, Cystic fibrosis transmembrane conductance regulator (Homo sapiens, UniProt P13569, F508DEL); assay: Activation of CFTR F508del mutant (unknown origin)
[2] = target: T2, PXR (nuclear receptor subfamily 1 group I member 2) (Homo sapiens, UniProt O75469); assay: Activation of PXR (unknown origin) at 10 uM relative to control; details: read-out: Activity
T2 sequence (O75469 whole entry): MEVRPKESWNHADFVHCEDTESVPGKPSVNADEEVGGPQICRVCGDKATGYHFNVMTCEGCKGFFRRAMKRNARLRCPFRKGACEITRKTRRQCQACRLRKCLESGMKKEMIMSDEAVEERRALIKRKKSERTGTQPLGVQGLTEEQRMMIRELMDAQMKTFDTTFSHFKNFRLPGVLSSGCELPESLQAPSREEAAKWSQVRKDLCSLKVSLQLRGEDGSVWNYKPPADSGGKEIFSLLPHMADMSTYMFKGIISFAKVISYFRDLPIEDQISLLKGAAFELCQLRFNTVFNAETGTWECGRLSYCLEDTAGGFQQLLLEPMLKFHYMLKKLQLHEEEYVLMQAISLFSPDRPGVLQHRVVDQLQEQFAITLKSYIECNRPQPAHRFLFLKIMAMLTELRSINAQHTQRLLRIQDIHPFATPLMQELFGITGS

[3] = Apparent permeability across apical to basolateral side in MDCK cells; type: ADME, cell-based, Canis lupus familiaris; details: dog
[4] = target: T1, Cystic fibrosis transmembrane conductance regulator; assay: Potentiation of CFTR F508del mutant (unknown origin) expressed in NIH3T3 cells; type: cell-based
[5] = Oral bioavailability in rat; type: ADME, organism-based; details: in vivo
[6] = target: T3, Nuclear receptor subfamily 1 group I member 2 (Homo sapiens, UniProt O75469); assay: Activation of PXR (unknown origin) at 10 uM relative to rifampicin
T3 sequence (O75469 whole entry): T2 sequence (O75469 whole entry)

[7] = AUC in rat at 3 mg/kg, po; details: in vivo

T1 sequence (P13569 as listed by the source): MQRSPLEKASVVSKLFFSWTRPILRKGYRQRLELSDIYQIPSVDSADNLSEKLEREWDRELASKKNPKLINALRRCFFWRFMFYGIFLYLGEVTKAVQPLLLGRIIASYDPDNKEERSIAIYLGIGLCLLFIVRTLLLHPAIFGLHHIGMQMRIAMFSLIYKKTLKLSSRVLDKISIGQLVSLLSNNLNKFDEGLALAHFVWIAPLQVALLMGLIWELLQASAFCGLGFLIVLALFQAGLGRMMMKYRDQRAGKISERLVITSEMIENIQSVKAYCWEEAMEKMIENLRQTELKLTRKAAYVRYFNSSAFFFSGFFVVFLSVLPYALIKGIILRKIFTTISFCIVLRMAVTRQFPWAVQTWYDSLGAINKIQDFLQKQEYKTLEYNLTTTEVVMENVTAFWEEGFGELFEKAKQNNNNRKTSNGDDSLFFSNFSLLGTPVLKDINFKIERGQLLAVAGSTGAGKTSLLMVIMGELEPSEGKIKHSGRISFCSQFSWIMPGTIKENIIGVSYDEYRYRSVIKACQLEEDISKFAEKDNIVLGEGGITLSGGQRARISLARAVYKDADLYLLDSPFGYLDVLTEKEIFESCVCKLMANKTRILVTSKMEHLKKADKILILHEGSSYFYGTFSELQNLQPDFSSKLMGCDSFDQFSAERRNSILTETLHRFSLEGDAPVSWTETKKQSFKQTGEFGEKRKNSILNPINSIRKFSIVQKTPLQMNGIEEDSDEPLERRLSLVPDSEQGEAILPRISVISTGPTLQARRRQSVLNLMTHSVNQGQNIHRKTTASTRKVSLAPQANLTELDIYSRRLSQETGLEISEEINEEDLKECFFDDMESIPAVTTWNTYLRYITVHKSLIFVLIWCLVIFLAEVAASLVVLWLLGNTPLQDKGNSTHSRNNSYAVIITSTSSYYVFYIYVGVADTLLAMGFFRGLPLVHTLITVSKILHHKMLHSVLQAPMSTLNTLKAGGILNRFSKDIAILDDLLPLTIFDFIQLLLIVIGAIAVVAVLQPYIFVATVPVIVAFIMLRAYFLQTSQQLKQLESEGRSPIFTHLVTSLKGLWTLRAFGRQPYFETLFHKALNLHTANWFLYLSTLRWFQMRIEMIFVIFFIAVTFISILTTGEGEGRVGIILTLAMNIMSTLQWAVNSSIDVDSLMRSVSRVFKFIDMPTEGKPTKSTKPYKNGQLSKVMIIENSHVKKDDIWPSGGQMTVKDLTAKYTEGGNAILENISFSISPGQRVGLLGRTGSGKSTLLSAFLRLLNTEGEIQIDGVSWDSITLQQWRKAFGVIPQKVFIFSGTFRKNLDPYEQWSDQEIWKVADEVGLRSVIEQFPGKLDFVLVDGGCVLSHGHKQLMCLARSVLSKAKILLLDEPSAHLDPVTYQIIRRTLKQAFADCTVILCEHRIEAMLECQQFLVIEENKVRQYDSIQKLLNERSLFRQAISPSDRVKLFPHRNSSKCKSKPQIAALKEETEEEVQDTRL

| SMILES | EC50 [1] [nM] | other results |
| --- | --- | --- |
| Cc1ccc(C2CCCCC2)c(OC2(C(=O)NS(=O)(=O)c3cccc(N4CCOC[C@@H]4C)n3)CC2)c1 | 80 |  |
| CCOc1ccc(CC)cc1[C@@]1(C(=O)NS(=O)(=O)c2cccc3nc(C)ccc23)CCCO1 | 30 |  |
| CC1(C)Cc2c(sc(NC(=O)[C@H](O)C(C)(C)C)c2C(N)=O)C(C)(C)O1 | 3 |  |
| Cc1ccccc1-c1nc(NS(=O)(=O)c2cccc(N3CCC[C@H](CC(=O)O)C3)n2)ccc1C(F)(F)F | 100 |  |
| CC1(C)Cc2c(sc(NC(=O)C3(CO)CC3)c2C(N)=O)C(C)(C)O1 | 2.7 |  |
| COc1ccc(Br)c2c1CCCC2C(=O)NS(=O)(=O)c1cccc2ncccc12 (configuration not stated) | < 3000 |  |
| Cc1c(S(=O)(=O)NC(=O)c2ccc(-n3ccc(OCC(C)(C)C(F)(F)F)n3)nc2N2C[C@@H](C)CC2(C)C)cnn1C |  | activity at 10 µM [2]: 3%; Papp A→B [3]: 3.8 ×10⁻⁶ cm/s; EC50 [4]: 170 nM |
| Cc1nn(C)cc1S(=O)(=O)NC(=O)c1ccc(-n2ccc(OCC(C)(C)C(F)(F)F)n2)nc1N1C[C@@H](C)CC1(C)C [ELEXACAFTOR] |  | activity at 10 µM [2]: 2%; bioavailability [5]: 83%; Papp A→B [3]: 4.5 ×10⁻⁶ cm/s; EC50 [4]: 70 nM |
| COc1ccc(C)cc1[C@]1(C(=O)NS(=O)(=O)c2cccc3nc(C)ccc23)C[C@@H]1c1cccc(C(F)(F)F)c1 (racemic) | 5 |  |
| CCOc1ccc(CC)cc1[C@]1(C(=O)NS(=O)(=O)c2cccc3nc(C)ccc23)CCCO1 | > 300 |  |
| COc1ccc(C2CCC2)cc1C1(C(=O)NS(=O)(=O)c2cccc3ccccc23)CC1 | < 3000 |  |
| CC(O)(c1nnc(-c2ncc(S(=O)(=O)c3ccc(OC(F)(F)F)cc3)cc2N)o1)C(F)(F)F (configuration not stated) | 1.8 |  |
| C[C@@H]1CN(c2nc(-n3ccc(OCCC4(C(F)(F)F)CC4)n3)ccc2C(=O)NS(=O)(=O)c2ccccc2)C(C)(C)C1 [BAMOCAFTOR] | 30 | Activity [6]: 3%; AUC [7]: 21000 ng·h/mL |
| COc1ncc(C2CCC2)cc1C1(C(=O)NS(=O)(=O)c2cccc3c2CCCN3)CC1 | < 3000 |  |
| CCc1ccccc1-c1nc(NS(=O)(=O)c2cccc(N(CCCC(=O)O)C(C)C)n2)ccc1C(F)(F)F | 2 |  |
| COc1ccc(Br)c2c1CCCC2C(=O)NS(=O)(=O)c1cccc2ccccc12 (configuration not stated) | < 3000 |  |
| COc1ccc(C)cc1[C@]1(C(=O)NS(=O)(=O)c2cccc3nc(C)ccc23)C[C@@H]1c1cnc(C(C)C)cn1 | 30 |  |
| C[C@@H]1CN(c2nc(-n3ccc(OCC4(C(F)(F)F)CCC4)n3)ccc2C(=O)NS(=O)(=O)c2ccccc2)C(C)(C)C1 | 40 | AUC [7]: 2200 ng·h/mL |
| Cc1nn(-c2ccc(F)cc2)c2nc(C(=O)NS(C)(=O)=O)cc(-c3ccc(N4CCOCC4)cc3)c12 | 1260 |  |
| CC(C)(CO)CN1CCCCCCc2ccccc2-c2nc(ccc2C(F)(F)F)NS(=O)(=O)c2cccc1n2 | 10 |  |
| Cc1nn(C)cc1S(=O)(=O)NC(=O)c1ccc(-n2ccc(OCC3(C(F)(F)F)CC3)n2)nc1N1C[C@@H](C)CC1(C)C |  | activity at 10 µM [2]: 4%; Papp A→B [3]: 7.1 ×10⁻⁶ cm/s; EC50 [4]: 220 nM |
| Nc1cc(S(=O)(=O)c2ccc(OC(F)(F)F)cc2)cnc1-c1nnc(CO)o1 [NAVOCAFTOR] | 5.6 |  |
| CCOc1cccc([C@@H]2C[C@]2(C(=O)NS(=O)(=O)c2cccc3nc(C)ccc23)c2cc(C)ccc2OC)n1 | 90 |  |
| CC(C)(CO)CN1CCCCCc2ccccc2-c2nc(ccc2C(F)(F)F)NS(=O)(=O)c2cccc1n2 | 3 |  |
| Cc1ccc(F)cc1-c1nc(NS(=O)(=O)c2cccc(N3CCC[C@@](C)(CC(=O)O)C3)n2)ccc1C(F)(F)F | 2 |  |
| C[C@@H]1CN(c2nc(-n3ccc(OCCC4(C(F)(F)F)CC4)n3)ccc2C(=O)NS(=O)(=O)c2cccc(F)c2)C(C)(C)C1 | 50 | AUC [7]: 2700 ng·h/mL |
